Key:
JAK1 = JAK1 (Homo sapiens (Human), UniProt P23458); assay: Biochemical JAK kinase assay (LanthaScreen), JAK1; details: for Ki: read-out: JAK1 pKi (converted)
Method in brief: (§1)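 LanthaScreen format: phospho-STAT1 (pTyr701) detected with 2 nM Tb antibody after 10 mM EDTA quench. Kinase step used Km-level ATP and 200 nM STAT1 peptide, 1 h at ambient after 1 h pre-incubation. Inhibition fitted to IC50, reported as pKi.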

JAK2 = JAK2 (Homo sapiens (Human), UniProt O60674); assay: Biochemical JAK kinase assay (LanthaScreen), JAK2; details: for Ki: read-out: JAK2 pKi (converted)
Sequence of JAK2 (O60674 whole entry): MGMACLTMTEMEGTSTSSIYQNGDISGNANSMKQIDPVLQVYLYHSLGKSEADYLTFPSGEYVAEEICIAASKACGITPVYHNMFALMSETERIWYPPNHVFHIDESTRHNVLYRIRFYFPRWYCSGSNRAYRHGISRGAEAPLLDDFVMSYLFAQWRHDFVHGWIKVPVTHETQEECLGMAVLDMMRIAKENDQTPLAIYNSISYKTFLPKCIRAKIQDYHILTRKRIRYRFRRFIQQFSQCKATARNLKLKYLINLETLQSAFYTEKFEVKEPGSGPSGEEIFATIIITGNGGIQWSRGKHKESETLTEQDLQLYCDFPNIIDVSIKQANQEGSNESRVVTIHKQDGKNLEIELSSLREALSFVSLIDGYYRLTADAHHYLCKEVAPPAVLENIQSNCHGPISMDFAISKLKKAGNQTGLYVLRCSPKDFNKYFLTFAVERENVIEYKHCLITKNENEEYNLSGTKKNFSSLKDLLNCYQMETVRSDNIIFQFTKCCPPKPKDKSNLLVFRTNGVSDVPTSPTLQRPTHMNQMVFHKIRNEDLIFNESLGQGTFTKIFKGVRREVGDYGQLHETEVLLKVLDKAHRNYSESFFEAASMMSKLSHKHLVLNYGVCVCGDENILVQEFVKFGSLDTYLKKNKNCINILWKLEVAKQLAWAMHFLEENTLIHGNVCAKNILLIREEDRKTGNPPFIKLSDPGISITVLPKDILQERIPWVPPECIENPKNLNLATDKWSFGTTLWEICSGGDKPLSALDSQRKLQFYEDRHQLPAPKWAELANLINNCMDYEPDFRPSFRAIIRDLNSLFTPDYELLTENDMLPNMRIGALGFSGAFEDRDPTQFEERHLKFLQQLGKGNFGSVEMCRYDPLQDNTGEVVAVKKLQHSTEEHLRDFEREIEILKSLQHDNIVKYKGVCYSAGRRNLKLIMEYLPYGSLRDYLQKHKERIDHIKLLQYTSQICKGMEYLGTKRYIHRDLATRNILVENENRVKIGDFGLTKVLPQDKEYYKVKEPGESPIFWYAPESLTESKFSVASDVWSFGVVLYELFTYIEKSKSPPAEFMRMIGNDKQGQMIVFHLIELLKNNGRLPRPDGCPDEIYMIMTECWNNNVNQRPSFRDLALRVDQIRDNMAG
Method in brief: as §1

[1] = test system: IL-13 induced STAT6 phosphorylation in BEAS-2B human lung epithelial cells; assay: Cellular JAKI potency assay (BEAS-2B); type: cell-based; details: Homo sapiens, BEAS-2B, BEAS-2B cells, read-out: BEAS2B pIC50 (converted)
Method in brief: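 BEAS-2B cells were preincubated with compound (0.1% DMSO) in HBSS/HEPES/BSA for 1 h at 37 °C, then stimulated with IL-13 (80 ng/mL before addition) for 30 min. After lysis, pSTAT6 (Tyr641) was quantified by AlphaLISA SureFire; IC50 from a 4-parameter fit of percent inhibition, reported as pIC50.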

Sequence of JAK1 (P23458 whole entry): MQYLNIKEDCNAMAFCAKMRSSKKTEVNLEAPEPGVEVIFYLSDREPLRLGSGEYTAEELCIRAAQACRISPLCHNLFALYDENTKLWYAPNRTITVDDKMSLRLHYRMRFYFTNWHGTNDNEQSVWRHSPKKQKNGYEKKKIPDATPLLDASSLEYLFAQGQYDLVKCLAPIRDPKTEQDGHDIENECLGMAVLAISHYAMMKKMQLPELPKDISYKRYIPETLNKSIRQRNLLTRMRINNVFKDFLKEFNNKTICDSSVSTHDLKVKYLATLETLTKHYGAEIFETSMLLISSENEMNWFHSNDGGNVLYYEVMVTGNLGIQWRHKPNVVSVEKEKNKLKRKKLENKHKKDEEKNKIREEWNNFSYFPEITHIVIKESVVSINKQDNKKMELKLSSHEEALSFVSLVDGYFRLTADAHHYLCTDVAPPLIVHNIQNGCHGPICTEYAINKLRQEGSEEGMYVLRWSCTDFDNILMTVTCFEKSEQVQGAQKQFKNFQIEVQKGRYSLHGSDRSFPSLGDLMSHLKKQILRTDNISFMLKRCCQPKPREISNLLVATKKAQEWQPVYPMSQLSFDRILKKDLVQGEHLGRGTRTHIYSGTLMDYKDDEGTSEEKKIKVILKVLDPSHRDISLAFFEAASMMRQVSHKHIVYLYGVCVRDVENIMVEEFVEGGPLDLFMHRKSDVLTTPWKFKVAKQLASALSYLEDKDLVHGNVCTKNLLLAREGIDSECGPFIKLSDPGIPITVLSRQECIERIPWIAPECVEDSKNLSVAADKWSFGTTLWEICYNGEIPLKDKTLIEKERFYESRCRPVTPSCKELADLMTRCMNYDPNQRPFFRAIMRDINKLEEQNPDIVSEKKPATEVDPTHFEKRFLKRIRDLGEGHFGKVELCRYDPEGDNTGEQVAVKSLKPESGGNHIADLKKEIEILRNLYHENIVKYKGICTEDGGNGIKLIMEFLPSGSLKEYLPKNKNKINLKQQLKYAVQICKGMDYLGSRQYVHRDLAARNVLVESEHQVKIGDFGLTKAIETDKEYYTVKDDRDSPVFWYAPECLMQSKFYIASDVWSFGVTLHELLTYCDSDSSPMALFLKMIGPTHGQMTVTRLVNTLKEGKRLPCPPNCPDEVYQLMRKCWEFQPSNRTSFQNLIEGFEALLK

Row | Compound | JAK1 pKi (JAK1) | JAK2 pKi (JAK2) | IC50 [1] | Ki (JAK1) | Ki (JAK2)
1 | CCCN1CC=C(c2c[nH]c(-c3n[nH]c4c(F)c(-c5ccc(O)cc5CC)ccc34)n2)C1 [Example 288] | A (A represents a pKi value ≥10 (Ki≤0.1 nM)) | A (A represents a pKi value ≥10 (Ki≤0.1 nM)) | 3.16 to 10 nM | – | –
2 | CCc1cc(O)ccc1-c1ccc2c(-c3nc(C4=C[C@H](CO)N(C)C4)c[nH]3)n[nH]c2c1F [Example 289] | A (A represents a pKi value ≥10 (Ki≤0.1 nM)) | A (A represents a pKi value ≥10 (Ki≤0.1 nM)) | 3.16 to 10 nM | – | –
3 | CCc1cc(O)ccc1-c1ccc2c(-c3nc(C4=CCN(CC5CC5)C4)c[nH]3)n[nH]c2c1F [Example 290] | A (A represents a pKi value ≥10 (Ki≤0.1 nM)) | A (A represents a pKi value ≥10 (Ki≤0.1 nM)) | 3.16 to 10 nM | – | –
4 | CCc1cc(O)ccc1-c1ccc2c(-c3nc(C4=C[C@@H](C)NC4)c[nH]3)n[nH]c2c1F [Example 292] | – | – | 3.16 to 10 nM | 0.1 to 1 nM | 0.1 to 1 nM
5 | CCc1cc(O)ccc1-c1ccc2c(-c3nc(C4=C(C(=O)OC)CNCC4)c[nH]3)n[nH]c2c1F [Example 294] | – | A (A represents a pKi value ≥10 (Ki≤0.1 nM)) | 3.16 to 10 nM | 0.1 to 1 nM | –
6 | CCc1cc(O)ccc1-c1ccc2c(-c3nc(C4=C(C(=O)OC)CCNC4)c[nH]3)n[nH]c2c1F [Example 295] | – | A (A represents a pKi value ≥10 (Ki≤0.1 nM)) | 3.16 to 10 nM | 0.1 to 1 nM | –
7 | CCc1cc(O)ccc1-c1ccc2c(-c3nc(C4=CCN(Cc5cn[nH]c5)C4)c[nH]3)n[nH]c2c1 [Example 296] | A (A represents a pKi value ≥10 (Ki≤0.1 nM)) | A (A represents a pKi value ≥10 (Ki≤0.1 nM)) | 10 to 31.6 nM | – | –
8 | CCc1cc(O)ccc1-c1ccc2c(-c3nc(C4=CCN(CCCO)C4)c[nH]3)n[nH]c2c1 [Example 297] | – | – | 10 to 31.6 nM | 0.1 to 1 nM | 0.1 to 1 nM
9 | CCOC(=O)C1=C(c2c[nH]c(-c3n[nH]c4c(F)c(-c5ccc(O)cc5CC)ccc34)n2)CNCC1 [Example 301] | A (A represents a pKi value ≥10 (Ki≤0.1 nM)) | – | 10 to 31.6 nM | – | 0.1 to 1 nM
10 | CCOC(=O)C1=C(c2c[nH]c(-c3n[nH]c4cc(-c5ccc(O)cc5CC)ccc34)n2)CNCC1 [Example 302] | A (A represents a pKi value ≥10 (Ki≤0.1 nM)) | – | 10 to 31.6 nM | – | 0.1 to 1 nM
11 | CCc1cc(O)ccc1-c1ccc2c(-c3nc(C4=CCN(C5CCC5)C4)c[nH]3)n[nH]c2c1F [Example 303] | A (A represents a pKi value ≥10 (Ki≤0.1 nM)) | A (A represents a pKi value ≥10 (Ki≤0.1 nM)) | 10 to 31.6 nM | – | –
12 | CCc1cc(O)ccc1-c1ccc2c(-c3nc(C4=CCN(C5CCC5)[C@H]4CO)c[nH]3)n[nH]c2c1F [Example 304] | A (A represents a pKi value ≥10 (Ki≤0.1 nM)) | A (A represents a pKi value ≥10 (Ki≤0.1 nM)) | 10 to 31.6 nM | – | –
13 | CCc1cc(O)ccc1-c1ccc2c(-c3nc(C4=CCC(C)(C)NC4)c[nH]3)n[nH]c2c1F [Example 306] | – | – | 10 to 31.6 nM | 0.1 to 1 nM | 0.1 to 1 nM
14 | CCc1cc(O)ccc1-c1ccc2c(-c3nc(C4=CCN(CCC5(O)CCC5)C4)c[nH]3)n[nH]c2c1F [Example 308] | – | A (A represents a pKi value ≥10 (Ki≤0.1 nM)) | 10 to 31.6 nM | 0.1 to 1 nM | –
15 | CCc1cc(O)ccc1-c1ccc2c(-c3nc(C4=C[C@H](CC(=O)OC(C)C)NC4)c[nH]3)n[nH]c2c1F [Example 309] | – | – | 10 to 31.6 nM | 0.1 to 1 nM | 0.1 to 1 nM
16 | CCc1cc(O)ccc1-c1ccc2c(-c3nc(C4=C[C@H]([C@H](C)O)NC4)c[nH]3)n[nH]c2c1F [Example 310] | – | A (A represents a pKi value ≥10 (Ki≤0.1 nM)) | 10 to 31.6 nM | 0.1 to 1 nM | –
17 | CCc1cc(O)ccc1-c1ccc2c(-c3nc(C4=CCN[C@@H](C)C4)c[nH]3)n[nH]c2c1F [Example 311] | – | – | 10 to 31.6 nM | 0.1 to 1 nM | 0.1 to 1 nM
18 | CCc1cc(O)ccc1-c1ccc2c(-c3nc(C4=CCNC(CC)C4)c[nH]3)n[nH]c2c1 (stereo not drawn) [Example 312] | – | – | 10 to 31.6 nM | 0.1 to 1 nM | 0.1 to 1 nM

Source: US20240092758A1, “IMIDAZOLO INDAZOLE COMPOUNDS AS JAK INHIBITORS” (Theravance Biopharma R&D IP, LLC, priority 2021, published 2024)
